Results reported in US12312333B2, “SK channel positive allosteric modulators” (Chapman University, priority 2021, dated 2025).

Target: T1, rat KCa2.2a (UniProt P0DP23+P70604)
T1 construct: expressed in transfected cells; host or cells: HEK293
Experiment: Inside-out patch-clamp potentiation of KCa2.2a channels expressed in HEK293 cells
Assay type: cell-based
Settings: for EC50 / activity / potency on KCa2.2a channels: inside-out patch; for EC50: HEK293, 0.15 μM Ca2+, current at −90 mV, read-out: EC50 (mean ± SEM, μM) on potentiating KCa2.2a channels; for efficacy (Emax) on KCa2.2a channels: normalized to 10 μM Ca2+
Procedure: The impact of adding one substituent group at C4 of the cyclohexane moiety of CyPPA with either electron donating (OH (2a), NH2 (2b), CH2OH (2c), and OCH3 (2d)) or electron-withdrawing groups (F (2e) and NO2 (2f)) was explored. The potency of the newly synthesized compounds compared to the template CyPPA was measured via inside-out patch clamp electrophysiology recordings with KCa2.2a channels heterologously expressed in HEK293 cells (FIG. 1A). […] The responses induced by 10 μM Ca^2+ are considered the maximal currents of the KCa2.2a channels. To evaluate the efficacy (Emax) of compounds on KCa2.2a channels, the current amplitudes at −90 mV in response to the maximal concentration of compounds were normalized to that obtained at 10 μM Ca^2+ (I/Imax (%), FIG. 1C).
The effect of newly synthesized compounds on the KCa2.x/KCa3.1 channels was investigated as previously described (Nam, Y. W.; et al, Acta Physiol (Oxf) 2020, e13552; Nam, Y. W.; et al. Scientific reports 2018, 8 (1), 10749). Briefly, the rat KCa2.2a, human KCa2.1, human KCa2.3 or human KCa3.1 channels cDNA constructs were either generated in-house or through molecular cloning services (Genscript). The channel cDNAs, along with CaM and GFP, at a ratio of 7:4:2 (ORF ratios), were transfected into HEK293 cells by the calcium-phosphate method. KCa currents were recorded 1-2 days after transfection, with an Axon200B amplifier (Molecular Devices) at room temperature. The resistance of the patch electrodes ranged from 3-5 MΩ. The pipette solution contained (in mM): 140 KCl, 10 Hepes (pH 7.4), 1 MgSO4. The bath solution containing (in mM): 140 KCl, 10 Hepes (pH 7.2), 1 EGTA, 0.1 Dibromo-BAPTA, and 1 HEDTA was mixed with Ca^2+ to obtain the desired free Ca^2+ concentrations, calculated using the software by Chris Patton of Stanford University (https://somapp.ucdmc.ucdavis.edu/pharmacology/bers/maxchelator/webmaxc/webmaxcS.htm). The Ca^2+ concentrations were verified using a Ca^2+ calibration buffer kit (Thermo Fisher Scientific). Briefly, a standard curve was generated using the Ca^2+ buffers from the kit and a fluorescence Ca^2+ indicator. Then, the Ca^2+ concentrations of the bath solution were determined through interpolation on the standard curve.
High resistance seals (>1 GΩ) were formed before inside-out patches were obtained. The seal resistance of inside-out patches was >1 GΩ, when the intracellular face was initially exposed to a zero-Ca^2+ bath solution. Currents were recorded by repetitive 1-s-voltage ramps from −100 mV to +100 mV from a holding potential of 0 mV. The currents were filtered at 2 kHz and digitized at a sampling frequency of 10 kHz. At the end of experiment, the integrity of the patch was examined by switching the bath solution back to the zero-Ca^2+ buffer. Data from patches, which maintained the seal resistance (>1 GΩ) after solution changes, were used for further analysis.
To measure the effect of CyPPA (Alomone Labs) and newly synthesized compounds, the intracellular face was exposed to bath solutions with 0.15 μM Ca^2+. One minute after switching of bath solutions, ten sweeps with a 1-s interval were recorded at a series of concentrations of compound in the presence of 0.15 μM Ca^2+. The maximal KCa2.x/KCa3.1 current in response to 10 μM Ca^2+ was then recorded.
Patch-clamp recordings were analyzed using Clampfit 10.5 (Molecular Devices LLC) and concentration-response curves were analyzed in GraphPad Prism 9.0.2 (GraphPad Software Inc.). To construct the concentration-dependent potentiation of channel activities by compound, the current amplitudes at −90 mV in response to various concentrations of the compound were normalized to that obtained at a maximal concentration of compound. The normalized currents were plotted as a function of the concentrations of the compound. EC50 values and Hill coefficients were determined by fitting the data points to a standard concentration-response curve (Y=100/(1+(X/EC50)^−Hill)). […]

Row | Molecule | EC50 | Emax (HEK293, current at −90 mV at maximal compound concentration normalized to 10 μM Ca2+, read-out: Emax on KCa2.2a channels (I/Imax)) | activity / potency on KCa2.2a channels (HEK293) | efficacy (Emax) on KCa2.2a channels
1 | Cc1cc(NC2CCC(O)CC2)nc(-n2nc(C)cc2C)n1 (stereo not shown) [Compound 2a, 4-((2-(3,5-Dimethyl-1H-pyrazol-1-yl)-6-methylpyrimidin-4-yl)amino)cyclohexan-1-ol] | > 100 µM |  |  | 
2 | Cc1cc(NC2CCC(N)CC2)nc(-n2nc(C)cc2C)n1 (stereo not shown) [Compound 2b, N^1-(2-(3,5-Dimethyl-1H-pyrazol-1-yl)-6-methylpyrimidin-4-yl)cyclohexane-1,4-diamine] | > 100 µM |  |  | 
3 | Cc1cc(NC2CCC(CO)CC2)nc(-n2nc(C)cc2C)n1 (stereo not shown) [Compound 2c, (4-((2-(3,5-Dimethyl-1H-pyrazol-1-yl)-6-methylpyrimidin-4-yl)amino)cyclohexyl) methanol] | > 100 µM |  |  | 
4 | COC1CCC(Nc2cc(C)nc(-n3nc(C)cc3C)n2)CC1 (stereo not shown) [Compound 2d, 2-(3,5-Dimethyl-1H-pyrazol-1-yl)-N-(4-methoxycyclohexyl)-6-methylpyrimidin-4-amine] | 49.7 ± 4.38 µM | 77.3 ± 4.95% |  | 
5 | Cc1cc(NC2CCC(F)CC2)nc(-n2nc(C)cc2C)n1 (stereo not shown) [Compound 2e, 2-(3,5-Dimethyl-1H-pyrazol-1-yl)-N-(4-fluorocyclohexyl)-6-methylpyrimidin-4-amine] | > 100 µM |  |  | 
6 | Cc1cc(NC2CCC([N+](=O)[O-])CC2)nc(-n2nc(C)cc2C)n1 (stereo not shown) [Compound 2f, 2-(3,5-Dimethyl-1H-pyrazol-1-yl)-6-methyl-N-(4-nitrocyclohexyl)pyrimidin-4-amine] | > 100 µM |  |  | 
7 | Cc1cc(NCCc2ccc([N+](=O)[O-])cc2)nc(-n2nc(C)cc2C)n1 [Compound 2g, 2-(3,5-Dimethyl-1H-pyrazol-1-yl)-6-methyl-N-(4-nitrophenethyl)pyrimidin-4-amine] | > 100 µM |  |  | 
8 | Cc1cc(NC(Cc2ccc(C#N)cc2)C(=O)O)nc(-n2nc(C)cc2C)n1 (stereo not shown) [Compound 2h, 3-(4-Cyanophenyl)-2-((2-(3,5-dimethyl-1H-pyrazol-1-yl)-6-methylpyrimidin-4-yl)amino)propanoic acid] | > 100 µM |  |  | 
9 | Cc1cc(N[C@@H](Cc2ccc(O)cc2)C(=O)O)nc(-n2nc(C)cc2C)n1 [Compound 2i, (2-(3,5-Dimethyl-1H-pyrazol-1-yl)-6-methylpyrimidin-4-yl)tyrosine] | > 100 µM |  |  | 
10 | Cc1cc(NC(Cc2ccc(F)c(F)c2)C(=O)O)nc(-n2nc(C)cc2C)n1 (stereo not shown) [Compound 2j, 3-(3,4-Difluorophenyl)-2-((2-(3,5-dimethyl-1H-pyrazol-1-yl)-6-methylpyrimidin-4-yl)amino)propanoic acid] | > 100 µM |  |  | 
11 | Cc1cc(Nc2ccc(S)cc2)nc(-n2nc(C)cc2C)n1 [Compound 2k, 4-((2-(3,5-Dimethyl-1H-pyrazol-1-yl)-6-methylpyrimidin-4-yl)amino)-benzenethiol] | > 100 µM |  | inactive | 
12 | Cc1cc(Nc2ccc([N+](=O)[O-])cc2)nc(-n2nc(C)cc2C)n1 [Compound 2l, 2-(3,5-Dimethyl-1H-pyrazol-1-yl)-6-methyl-N-(4-nitrophenyl)pyrimidin-4-amine] | > 100 µM |  | inactive | 
13 | Cc1cc(Nc2cccc(F)c2F)nc(-n2nc(C)cc2C)n1 [Compound 2m, N-(2,3-Difluorophenyl)-2-(3,5-dimethyl-1H-pyrazol-1-yl)-6-methyl-pyrimidin-4-amine] | 5.03 ± 0.59 µM |  |  | 
14 | Cc1cc(Nc2cc(F)ccc2F)nc(-n2nc(C)cc2C)n1 [Compound 2n, N-(2,5-Difluorophenyl)-2-(3,5-dimethyl-1H-pyrazol-1-yl)-6-methylpyrimidin-4-amine] | 1.89 ± 0.16 µM |  |  | 
15 | Cc1cc(Nc2ccc(Cl)cc2F)nc(-n2nc(C)cc2C)n1 [Compound 2p, N-(4-Chloro-2-fluorophenyl)-2-(3,5-dimethyl-1H-pyrazol-1-yl)-6-methyl-pyrimidin-4-amine] | 1.99 ± 0.11 µM |  |  | 
16 | Cc1cc(Nc2cc(F)ccc2Cl)nc(-n2nc(C)cc2C)n1 [Compound 2r, N-(2-Chloro-5-fluorophenyl)-2-(3,5-dimethyl-1H-pyrazol-1-yl)-6-methylpyrimidin-4-amine] | 2.97 ± 0.27 µM |  |  | 
17 | Cc1cc(Nc2ccc(C(F)(F)F)cc2)nc(-n2nc(C)cc2C)n1 [Compound 2s, 2-(3,5-Dimethyl-1H-pyrazol-1-yl)-6-methyl-N-(4-(trifluoromethyl)-phenyl)pyrimidin-4-amine] | 3.45 ± 0.42 µM |  | did not significantly change the potency compared with CyPPA | 
18 | Cc1cc(Nc2ccc(C(F)(F)F)c(Cl)c2)nc(-n2nc(C)cc2C)n1 [Compound 2t, N-(3-Chloro-4-(trifluoromethyl)phenyl)-2-(3,5-dimethyl-1H-pyrazol-1-yl)-6-methyl-pyrimidin-4-amine] | 3.27 ± 0.3 µM |  |  | 
19 | Cc1cc(Nc2cc(Cl)cc(C(F)(F)F)c2)nc(-n2nc(C)cc2C)n1 [Compound 2u, N-(3-Chloro-5-(trifluoromethyl)phenyl)-2-(3,5-dimethyl-1H-pyrazol-1-yl)-6-methylpyrimidin-4-amine] | > 100 µM |  |  | 
20 | COc1cc2nc(Nc3cc(C)nc(-n4nc(C)cc4C)n3)[nH]c2cc1OC [Compound 2w, N-(2-(3,5-Dimethyl-1H-pyrazol-1-yl)-6-methylpyrimidin-4-yl)-5,6-dimethoxy-1H-benzo[d]imidazol-2-amine] | > 100 µM |  |  | 
21 | Cc1cn(-c2nc(C)cc(Nc3cc(Cl)ccc3F)n2)cn1 [Compound 5a, N-(5-Chloro-2-fluorophenyl)-6-methyl-2-(4-methyl-1H-imidazol-1-yl)pyrimidin-4-amine] | 4.51 ± 0.44 µM |  |  | retained their efficacy
22 | Cc1cn(-c2nc(C)cc(Nc3ccc(F)c(Cl)c3)n2)cn1 [Compound 5b, N-(3-Chloro-4-fluorophenyl)-6-methyl-2-(4-methyl-1H-imidazol-1-yl)pyrimidin-4-amine] | 38.8 ± 4.02 µM |  | drastically reduced compared with 2o | decreased compared with 2o
23 | Cc1cc(Nc2cc(Cl)ccc2F)nc(-c2coc(C)n2)n1 [Compound 6a, N-(5-Chloro-2-fluorophenyl)-6-methyl-2-(2-methyloxazol-4-yl)pyrimidin-4-amine] | 13.8 ± 1.68 µM |  | lower potency than 2q | retained their efficacy
24 | Cc1cc(Nc2ccc(F)c(Cl)c2)nc(-c2coc(C)n2)n1 [Compound 6b, N-(3-Chloro-4-fluorophenyl)-6-methyl-2-(2-methyloxazol-4-yl)pyrimidin-4-amine] | 3.59 ± 0.33 µM |  |  | retained their efficacy
25 | Cc1cc(C)n(-c2cc(C)c(Nc3ccc(F)c(Cl)c3)nn2)n1 [Compound 7, N-(3-Chloro-4-fluorophenyl)-6-(3,5-dimethyl-1H-pyrazol-1-yl)-4-methylpyridazin-3-amine] | 4.32 ± 0.32 µM |  | reduced potency | retaining their efficacy
26 | N^1-(2,5-Difluorophenyl)-6-(3,5-dimethyl-1H-pyrazol-1-yl)pyrimidine-2,4-diamine [Compound 3f] | > 100 µM |  |  | 
27 | N^1-(2-Chloro-5-fluorophenyl)-6-(3,5-dimethyl-1H-pyrazol-1-yl)pyrimidine-2,4-diamine [Compound 3e] | > 100 µM |  |  | 
28 | N^1-(3-Chloro-4-(trifluoromethyl)phenyl)-6-(3,5-dimethyl-1H-pyrazol-1-yl)pyrimidine-2,4-diamine [Compound 3g] | > 100 µM |  |  | 
